Test results as given in US11932606B2, “Anti-cancer/anti-fibrosis compounds” (THE REGENTS OF THE UNIVERSITY OF CALIFORNIA, priority 2017, dated 2024).
Where two headings read alike, the source gives them in different places.

How the values were obtained:
HIPK2 = HIPK2 (Homo sapiens (Human), UniProt Q9H2X6); experiment: HIPK2 enzymatic activity inhibition (Z'-LYTE); assay type: biochemical
Method: HIPK2 Enzymatic Activity Inhibition: Determination of IC50 Values for Selected Compounds
The half maximal inhibitory concentration (IC50) with respect to HIPK2 inhibition was determined for the compounds of the invention by using Z′-LYTE™ from ThermoFisher Scientific's SelectScreen™ Biochemical Kinase Profiling Service (Waltham, MA). Compounds were screened in 1% DMSO (final) in the well. For 10 point titrations, 3-fold serial dilutions were conducted from the starting concentration. The 2×HIPK2/Ser/Thr 09 mixture was prepared in 50 mM HEPES pH 7.5, 0.01% BRIJ-35, 10 mM MgCl2, 1 mM EGTA.
100 nL of 100× test compound in 100% DMSO, 2.4 uL of kinase buffer (50 mM HEPES pH 7.5, 0.01% BRIJ-35, 10 mM MgCl2, 1 mM EGTA), 5 uL of 2×HIPK2/Ser/Thr 09 mixture, and 2.5 uL of 4×ATP solution were mixed and agitated for 30 seconds. Then the Kinase Reaction was incubated at room temperature for 60 minutes. […] After 30 second of plate shake, the reaction plate was incubated for another 60 min at room temperature. Then the plate was read on a fluorescence plate reader (CLARIOstar, BMG Labtech, Germany) as plate reader and data was analyzed using XLfit from IDBS.

CSNK2A1 (CK2 alpha 1) = CSNK2A1 (CK2 alpha 1) (Homo sapiens (Human), UniProt P68400); experiment: CK2 alpha 1 enzymatic activity inhibition (Z'-LYTE); assay type: biochemical; settings: read-out: CK2a IC50
CSNK2A1 (CK2 alpha 1), sequence (P68400 whole entry): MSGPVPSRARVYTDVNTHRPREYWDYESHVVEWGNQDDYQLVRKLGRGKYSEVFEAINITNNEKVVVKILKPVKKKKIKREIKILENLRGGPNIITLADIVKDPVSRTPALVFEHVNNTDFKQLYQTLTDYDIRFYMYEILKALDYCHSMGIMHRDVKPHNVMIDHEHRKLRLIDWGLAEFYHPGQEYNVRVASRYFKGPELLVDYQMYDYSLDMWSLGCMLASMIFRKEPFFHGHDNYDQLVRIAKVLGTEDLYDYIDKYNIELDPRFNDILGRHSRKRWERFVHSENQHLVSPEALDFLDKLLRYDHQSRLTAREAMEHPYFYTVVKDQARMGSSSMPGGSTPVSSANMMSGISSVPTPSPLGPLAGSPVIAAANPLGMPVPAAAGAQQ
Method: CK2 Alpha 1 Enzymatic Activity Inhibition: Determination of IC50 Values for Selected Compounds
The half maximal inhibitory concentration (IC50) with respect to CK2 alpha 1 inhibition was determined for the compounds of the invention by using Z′-LYTE™ from ThermoFisher Scientific's SelectScreen™ Biochemical Kinase Profiling Service (Waltham, MA). Compounds were screened in 1% DMSO (final) in the well. For 10 point titrations, 3-fold serial dilutions were conducted from the starting concentration. The 2×CSNK2A1 (CK2 alpha 1)/Ser/Thr 11 mixture is prepared in 50 mM HEPES pH 7.5, 0.01% BRIJ-35, 10 mM MgCl2, 1 mM EGTA. The black 384-well plate (Corning Cat. #4514) were used for the assay. 100 nL of 100× test compound in 100% DMSO, 2.4 uL of kinase buffer (50 mM HEPES pH 7.5, 0.01% BRIJ-35, 10 mM MgCl2, 1 mM EGTA), 5 uL of 2×CSNK2A1 (CK2 alpha 1)/Ser/Thr 11 mixture, and 2.5 uL of 4×ATP solution were mixed and agitated for 30 seconds. Then the Kinase Reaction was incubated at room temperature for 60 minutes. The final 10 uL Kinase Reaction consisted of 0.68-25.7 ng CSNK2A1 (CK2 alpha 1) and 2 μM Ser/Thr 11 in 50 mM HEPES pH 7.5, 0.01% BRIJ-35, 10 mM MgCl2, 1 mM EGTA. After the 1 hour Kinase Reaction incubation, 5 uL of a 1:16 dilution of Development Reagent B is added. After 30 second of plate shake, the reaction plate was incubated for another 60 min at room temperature. Then the plate was read on a fluorescence plate reader (CLARIOstar, BMG Labtech, Germany) and data was analyzed using XLfit from IDBS. The dose response curve was curve fit to model number 205 (sigmoidal dose-response model).

HIPK2, sequence (Q9H2X6 whole entry): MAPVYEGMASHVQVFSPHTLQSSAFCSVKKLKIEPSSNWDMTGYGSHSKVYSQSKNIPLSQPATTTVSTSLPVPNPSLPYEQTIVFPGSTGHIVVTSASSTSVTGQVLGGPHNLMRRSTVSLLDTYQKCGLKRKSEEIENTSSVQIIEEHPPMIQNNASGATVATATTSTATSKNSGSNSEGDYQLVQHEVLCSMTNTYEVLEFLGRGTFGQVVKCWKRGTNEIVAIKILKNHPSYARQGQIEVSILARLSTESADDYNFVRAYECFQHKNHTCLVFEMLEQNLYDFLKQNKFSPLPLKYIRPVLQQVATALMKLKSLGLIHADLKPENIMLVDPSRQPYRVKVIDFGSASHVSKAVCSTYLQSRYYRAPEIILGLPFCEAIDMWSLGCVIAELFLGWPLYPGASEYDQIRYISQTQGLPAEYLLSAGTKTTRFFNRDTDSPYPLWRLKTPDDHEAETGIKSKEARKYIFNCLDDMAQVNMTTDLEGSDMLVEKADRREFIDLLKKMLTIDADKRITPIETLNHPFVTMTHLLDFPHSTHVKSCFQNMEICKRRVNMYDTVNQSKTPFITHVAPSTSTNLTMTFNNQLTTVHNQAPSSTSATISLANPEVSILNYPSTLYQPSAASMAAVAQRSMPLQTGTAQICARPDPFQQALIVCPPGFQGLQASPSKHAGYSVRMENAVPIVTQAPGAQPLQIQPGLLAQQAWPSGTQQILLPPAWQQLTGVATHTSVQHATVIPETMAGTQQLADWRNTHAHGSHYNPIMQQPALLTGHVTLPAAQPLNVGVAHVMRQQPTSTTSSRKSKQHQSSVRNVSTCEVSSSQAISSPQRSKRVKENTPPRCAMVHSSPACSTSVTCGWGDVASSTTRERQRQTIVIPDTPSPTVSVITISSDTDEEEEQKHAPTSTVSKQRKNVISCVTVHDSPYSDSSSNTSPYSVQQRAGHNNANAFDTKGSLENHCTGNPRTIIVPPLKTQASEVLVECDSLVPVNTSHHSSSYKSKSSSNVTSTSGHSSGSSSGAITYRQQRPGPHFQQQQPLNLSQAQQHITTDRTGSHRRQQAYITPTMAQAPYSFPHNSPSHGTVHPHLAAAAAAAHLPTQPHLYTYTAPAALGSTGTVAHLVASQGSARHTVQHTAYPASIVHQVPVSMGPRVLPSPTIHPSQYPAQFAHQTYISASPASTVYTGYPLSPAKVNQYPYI

O=C(O)c1ccc2c(c1)cc(Br)c1ccncc12 [Compound 1, Sodium 5-bromobenzo[h]isoquinoline-8-carboxylate]
IC50 (HIPK2; read-out: HIPK2 IC50): < 300 nM
IC50 (CSNK2A1 (CK2 alpha 1)): < 300 nM

O=C(O)c1ccc2c(ccc3ccncc32)c1 [Compound 2, Sodium benzo[h]isoquinoline-8-carboxylate]
IC50 (HIPK2): 1000 to 5000 nM
IC50 (CSNK2A1 (CK2 alpha 1)): < 300 nM

O=C(O)c1ccc2c(c1)cc(Cl)c1ccncc12 [Compound 3, Sodium 5-chlorobenzo[h]isoquinoline-8-carboxylate]
IC50 (HIPK2): 300 to 1000 nM
IC50 (CSNK2A1 (CK2 alpha 1)): < 300 nM

O=C(O)c1ccc2c(c1)cc(Nc1cccc(Cl)c1)c1ccncc12 [Compound 4, Sodium 5-((3-chlorophenyl)amino)benzo[h]isoquinoline-8-carboxylate]
IC50 (HIPK2): 300 to 1000 nM
IC50 (CSNK2A1 (CK2 alpha 1)): < 300 nM

O=C(O)c1ccc2c(c1)cc(Nc1ccc(Cl)cc1)c1ccncc12 [Compound 5, Sodium 5-((4-chlorophenyl)amino)benzo[h]isoquinoline-8-carboxylate]
IC50 (HIPK2): 300 to 1000 nM
IC50 (CSNK2A1 (CK2 alpha 1)): < 300 nM

O=C(O)c1ccc2c(c1)cc(-c1ccc(Cl)cc1)c1ccncc12 [Compound 6, Sodium 5-(4-chlorophenyl)benzo[h]isoquinoline-8-carboxylate]
IC50 (HIPK2): 1000 to 5000 nM
IC50 (CSNK2A1 (CK2 alpha 1)): 300 to 1000 nM

O=C(O)c1ccc2c(c1)cc(-c1cccnc1)c1ccncc12 [Compound 7, Sodium 5-(pyridin-3-yl)benzo[h]isoquinoline-8-carboxylate]
IC50 (HIPK2): 1000 to 5000 nM
IC50 (CSNK2A1 (CK2 alpha 1)): < 300 nM

O=C(O)c1ccc2c(c1)cc(-c1ccncc1)c1ccncc12 [Compound 8, Sodium 5-(pyridin-4-yl)benzo[h]isoquinoline-8-carboxylate]
IC50 (HIPK2): 1000 to 5000 nM
IC50 (CSNK2A1 (CK2 alpha 1)): < 300 nM

Cc1cc2cc(C(=O)O)ccc2c2cnccc12 [Compound 9, Sodium 5-methylbenzo[h]isoquinoline-8-carboxylate]
IC50 (HIPK2): 300 to 1000 nM
IC50 (CSNK2A1 (CK2 alpha 1)): < 300 nM

Nc1ccc(-c2cc3cc(C(=O)O)ccc3c3cnccc23)cn1 [Compound 10, Sodium 5-(6-aminopyridin-3-yl)benzo[h]isoquinoline-8-carboxylate]
IC50 (HIPK2): 300 to 1000 nM
IC50 (CSNK2A1 (CK2 alpha 1)): < 300 nM

O=C(O)c1ccc2c(c1)cc(-c1cc[nH]n1)c1ccncc12 [Compound 11, Sodium 5-(1H-pyrazol-3-yl)benzo[h]isoquinoline-8-carboxylate]
IC50 (HIPK2): 1000 to 5000 nM
IC50 (CSNK2A1 (CK2 alpha 1)): < 300 nM

O=C(O)c1ccc2c(c1)cc(NC1CCCCC1)c1ccncc12 [Compound 12, Sodium 5-(cyclohexylamino)benzo[h]isoquinoline-8-carboxylate]
IC50 (HIPK2): 300 to 1000 nM
IC50 (CSNK2A1 (CK2 alpha 1)): < 300 nM

O=C(O)c1ccc2c(c1)cc(N[C@@H]1CCCNC1)c1ccncc12 [Compound 13, (R)-5-(Piperidin-3-ylamino)benzo[h]isoquinoline-8-carboxylic acid]
IC50 (HIPK2): 1000 to 5000 nM
IC50 (CSNK2A1 (CK2 alpha 1)): 1000 to 5000 nM

N[C@@H]1CCCN(c2cc3cc(C(=O)O)ccc3c3cnccc23)C1 [Compound 14, (R)-5-(3-Aminopiperidin-1-yl)benzo[h]isoquinoline-8-carboxylic acid]
IC50 (HIPK2; read-out: HIPK2 IC50): > 5000 nM
IC50 (CSNK2A1 (CK2 alpha 1)): < 300 nM

O=C(O)c1ccc2c(c1)cc(NC1CCCC1)c1ccncc12 [Compound 15, Sodium 5-(cyclopentylamino)benzo[h]isoquinoline-8-carboxylate]
IC50 (HIPK2): 300 to 1000 nM
IC50 (CSNK2A1 (CK2 alpha 1)): < 300 nM

CC(C)CNc1cc2cc(C(=O)O)ccc2c2cnccc12 [Compound 16]
IC50 (CSNK2A1 (CK2 alpha 1)): < 300 nM

O=C(O)c1ccc2c(c1)cc(NC1CC1)c1ccncc12 [Compound 17, Sodium 5-(cyclopropylamino)benzo[h]isoquinoline-8-carboxylate]
IC50 (HIPK2; read-out: HIPK2 IC50): < 300 nM
IC50 (CSNK2A1 (CK2 alpha 1)): < 300 nM

O=C(O)c1ccc2c(c1)cc(NC1CCC1)c1ccncc12 [Compound 18, Sodium 5-(cyclobutylamino)benzo[h]isoquinoline-8-carboxylate]
IC50 (HIPK2): 300 to 1000 nM
IC50 (CSNK2A1 (CK2 alpha 1)): < 300 nM

CC[C@H](C)Nc1cc2cc(C(=O)O)ccc2c2cnccc12 [Compound 19, (S)-5-(sec-Butylamino)benzo[h]isoquinoline-8-carboxylic acid]
IC50 (HIPK2): 1000 to 5000 nM
IC50 (CSNK2A1 (CK2 alpha 1)): < 300 nM

O=C(O)c1ccc2c(c1)cc(N1CCCCC1)c1ccncc12 [Compound 20, Sodium 5-(piperidin-1-yl)benzo[h]isoquinoline-8-carboxylate]
IC50 (HIPK2): 300 to 1000 nM
IC50 (CSNK2A1 (CK2 alpha 1)): < 300 nM

CC(C)Nc1cc2cc(C(=O)O)ccc2c2cnccc12 [Compound 21, Sodium 5-(isopropylamino)benzo[h]isoquinoline-8-carboxylate]
IC50 (HIPK2): 300 to 1000 nM
IC50 (CSNK2A1 (CK2 alpha 1)): < 300 nM

CC[C@@H](C)Nc1cc2cc(C(=O)O)ccc2c2cnccc12 [Compound 22, Sodium (R)-5-(sec-butylamino)benzo[h]isoquinoline-8-carboxylate]
IC50 (HIPK2; read-out: HIPK2 IC50): < 300 nM
IC50 (CSNK2A1 (CK2 alpha 1)): < 300 nM

O=C(O)c1ccc2c(c1)cc(Br)c1ccnc(Cl)c12 [Compound 23, Sodium 5-bromo-1-chlorobenzo[h]isoquinoline-8-carboxylate]
IC50 (HIPK2): 300 to 1000 nM
IC50 (CSNK2A1 (CK2 alpha 1)): < 300 nM

O=C(O)c1ccc2c(c1)cc(Br)c1cc(Cl)ncc12 [Compound 24, Sodium 5-bromo-3-chlorobenzo[h]isoquinoline-8-carboxylate]
IC50 (HIPK2; read-out: HIPK2 IC50): > 5000 nM
IC50 (CSNK2A1 (CK2 alpha 1)): 1000 to 5000 nM

O=C(O)c1ccc2c(ccc3ccnc(Cl)c32)c1 [Compound 25, Sodium 1-chlorobenzo[h]isoquinoline-8-carboxylate]
IC50 (HIPK2): 1000 to 5000 nM
IC50 (CSNK2A1 (CK2 alpha 1)): < 300 nM

O=C(O)c1ccc2c(c1)cc([N+](=O)[O-])c1ccncc12 [Compound 26, Sodium 5-nitrobenzo[h]isoquinoline-8-carboxylate]
IC50 (HIPK2): 300 to 1000 nM
IC50 (CSNK2A1 (CK2 alpha 1)): < 300 nM

N#Cc1cc2cc(C(=O)O)ccc2c2cnccc12 [Compound 27, Sodium 5-cyanobenzo[h]isoquinoline-8-carboxylate]
IC50 (HIPK2): 300 to 1000 nM
IC50 (CSNK2A1 (CK2 alpha 1)): < 300 nM

O=C(O)c1ccc2c(c1)cc(C1CC1)c1ccncc12 [Compound 28, Sodium 5-cyclopropylbenzo[h]isoquinoline-8-carboxylate]
IC50 (HIPK2): 300 to 1000 nM
IC50 (CSNK2A1 (CK2 alpha 1)): < 300 nM

CN(C)c1nccc2c(Br)cc3cc(C(=O)O)ccc3c12 [Compound 30, Sodium 5-bromo-1-(dimethylamino)benzo[h]isoquinoline-8-carboxylate]
IC50 (HIPK2): 1000 to 5000 nM
IC50 (CSNK2A1 (CK2 alpha 1)): 1000 to 5000 nM

O=C(O)c1ccc2c(c1)cc(Br)c1ccnc(NC3CC3)c12 [Compound 31, Sodium 5-bromo-1-(cyclopropylamino)benzo[h]isoquinoline-8-carboxylate]
IC50 (HIPK2): 1000 to 5000 nM
IC50 (CSNK2A1 (CK2 alpha 1)): 1000 to 5000 nM

CNc1nccc2c(Br)cc3cc(C(=O)O)ccc3c12 [Compound 32, Sodium 5-bromo-1-(methylamino)benzo[h]isoquinoline-8-carboxylate]
IC50 (HIPK2): 1000 to 5000 nM
IC50 (CSNK2A1 (CK2 alpha 1)): 300 to 1000 nM

NC(=O)c1ccc2c(c1)cc(Br)c1ccnc(N)c12 [Compound 33, 1-Amino-5-bromobenzo[h]isoquinoline-8-carboxamide]
IC50 (HIPK2): 300 to 1000 nM
IC50 (CSNK2A1 (CK2 alpha 1)): 1000 to 5000 nM

COc1nccc2c(Br)cc3cc(C(=O)O)ccc3c12 [Compound 34, Sodium 5-bromo-1-methoxybenzo[h]isoquinoline-8-carboxylate]
IC50 (HIPK2): 1000 to 5000 nM
IC50 (CSNK2A1 (CK2 alpha 1)): 300 to 1000 nM

Nc1nccc2cc(Br)c3cc(C(=O)O)ccc3c12 [Compound 35, Sodium 1-amino-6-bromobenzo[h]isoquinoline-8-carboxylate]
IC50 (HIPK2; read-out: HIPK2 IC50): < 300 nM
IC50 (CSNK2A1 (CK2 alpha 1)): 300 to 1000 nM
